Experimental data as given in ChEMBL document CHEMBL1201862, “PubChem BioAssay data set” (2004).
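96-well plates; 48 h exposure; 5 concentrations. Endpoints by linear interpolation between flanking doses. Not reached: highest tested concentration assigned. GI50 = concentration required for 50% inhibition of growth.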 Activity calls are given as the source filed them. Rule as the data show it: active = GI50 up to about 1.1 µM and inactive = higher.

Columns and labels:
Experiment in all cases: growth of human tumour cells (NCI), 48 h
SF-539 = system: SF-539
LOX IMVI = system: LOX IMVI
MDA-MB-435 = system: MDA-MB-435
CCRF-CEM = system: CCRF-CEM
UACC-62 = system: UACC-62
HOP-92 = system: HOP-92
NCI-H23 = system: NCI-H23
A549 = system: A549
T47D = system: T47D
PC-3 = system: PC-3
MDA-MB-231 = system: MDA-MB-231
DU-145 = system: DU-145
NCI-H460 = system: NCI-H460
KM12 = system: KM12
U-251 = system: U-251
HOP-62 = system: HOP-62
SF-295 = system: SF-295
OVCAR-3 = system: OVCAR-3
NCI/ADR-RES = system: NCI/ADR-RES

| SMILES | GI50 (SF-539) | GI50 (LOX IMVI) | GI50 (MDA-MB-435) | GI50 (CCRF-CEM) | GI50 (UACC-62) | GI50 (HOP-92) | GI50 (NCI-H23) | GI50 (A549) | GI50 (T47D) | GI50 (PC-3) | GI50 (MDA-MB-231) | GI50 (DU-145) | GI50 (NCI-H460) | GI50 (KM12) | GI50 (U-251) | GI50 (HOP-62) | GI50 (SF-295) | GI50 (OVCAR-3) | GI50 (NCI/ADR-RES) |
| --- | --- | --- | --- | --- | --- | --- | --- | --- | --- | --- | --- | --- | --- | --- | --- | --- | --- | --- | --- |
| Cc1ccc(NC(=O)COc2ccc(Cl)cc2)cc1Cl | 83.6 µM (inactive) | 82 µM (inactive) | > 100 µM (inactive) | 0.278 µM (active) | 53.3 µM (inactive) | 51.8 µM (inactive) | 19.7 µM (inactive) | 74.1 µM (inactive) | > 100 µM (inactive) | > 100 µM (inactive) | 15.2 µM (inactive) | > 100 µM (inactive) | > 100 µM (inactive) | > 100 µM (inactive) | 27.4 µM (inactive) | 20 µM (inactive) | 50.5 µM (inactive) | > 100 µM (inactive) | 78.2 µM (inactive) |
| CCCCCCCCCCCCCCCCCCNc1nc(=O)n(C2CC(OP(=O)(O)OCC3OC(n4cc(F)c(=O)[nH]c4=O)CC3O)C(CO)O2)cc1F (stereo unspecified) | 6.67 µM (inactive) | 26.1 µM (inactive) | 75.2 µM (inactive) | 12.9 µM (inactive) | 20.5 µM (inactive) | 5.33 µM (inactive) | 38.8 µM (inactive) | 7.24 µM (inactive) | 31.2 µM (inactive) | 22.6 µM (inactive) | > 100 µM (inactive) | 62.2 µM (inactive) | – | 11.2 µM (inactive) | 17.5 µM (inactive) | 15.2 µM (inactive) | 13.5 µM (inactive) | 29 µM (inactive) | 30.3 µM (inactive) |
| CC(C)(C)c1cc(-c2cc(C(C)(C)C)n(-c3ccccc3)n2)nn1-c1ccccc1 | > 100 µM (inactive) | 6.43 µM (inactive) | 49.8 µM (inactive) | > 100 µM (inactive) | 11.6 µM (inactive) | > 100 µM (inactive) | > 100 µM (inactive) | > 100 µM (inactive) | 59.2 µM (inactive) | 65.6 µM (inactive) | > 100 µM (inactive) | > 100 µM (inactive) | 61.5 µM (inactive) | 84.5 µM (inactive) | > 100 µM (inactive) | > 100 µM (inactive) | > 100 µM (inactive) | > 100 µM (inactive) | > 100 µM (inactive) |
| C=C1C(=O)OC2CC(C)C3(O)CCC(=O)C3(C)CC12 (stereo unspecified) | 16.1 µM (inactive) | 31.8 µM (inactive) | 39.7 µM (inactive) | 33.8 µM (inactive) | 44.3 µM (inactive) | 57.1 µM (inactive) | 31.7 µM (inactive) | 52.4 µM (inactive) | 40.4 µM (inactive) | 49 µM (inactive) | 26 µM (inactive) | 31.9 µM (inactive) | – | 20.7 µM (inactive) | 38.1 µM (inactive) | 28.2 µM (inactive) | 40.5 µM (inactive) | 16 µM (inactive) | 32.4 µM (inactive) |
| C[C@H]1CN[C@@H]2[C@@H](C)[C@H]3[C@@H](C[C@H]4[C@@H]5CC[C@H]6C[C@@H](N)CC[C@]6(C)[C@H]5CC[C@]34C)O[C@@]2(O)C1 | 1.27 µM (inactive) | 1.73 µM (inactive) | 1.6 µM (inactive) | 0.561 µM (active) | 1.95 µM (inactive) | 2.47 µM (inactive) | 12.9 µM (inactive) | 3.8 µM (inactive) | 2.23 µM (inactive) | 2.79 µM (inactive) | 1.9 µM (inactive) | 4.03 µM (inactive) | 2.32 µM (inactive) | 1.91 µM (inactive) | 1.67 µM (inactive) | – | 2.92 µM (inactive) | 2.03 µM (inactive) | 2.54 µM (inactive) |
| CC1=CCC(C)=Nc2nc3ccccc3n21 | > 100 µM (inactive) | > 100 µM (inactive) | > 100 µM (inactive) | > 100 µM (inactive) | > 100 µM (inactive) | > 100 µM (inactive) | > 100 µM (inactive) | > 100 µM (inactive) | > 100 µM (inactive) | > 100 µM (inactive) | > 100 µM (inactive) | > 100 µM (inactive) | > 100 µM (inactive) | > 100 µM (inactive) | > 100 µM (inactive) | > 100 µM (inactive) | > 100 µM (inactive) | > 100 µM (inactive) | > 100 µM (inactive) |
